Laboratory results reported in ChEMBL document CHEMBL3044820, “Evaluation of Benzenesulfonanilide Derivatives for the Control of Crucifers Clubroot” (1996).

Experiments:
Type in all cases: functional
[1] = test system: Plasmodiophora brassicae; assay: Fungicidal activity against clubroot disease causing Plasmodiophora brassicae infested Brassica campestris under greenhouse condition assessed as disease incidence at 4 kg a.i/ha treated to soil measured after 40 to 50 days
[2] = test system: Plasmodiophora brassicae; assay: Fungicidal activity against clubroot disease causing Plasmodiophora brassicae infested Brassica campestris under greenhouse condition assessed as disease incidence at 0.5 kg a.i/ha treated to soil measured after 40 to 50 days
[3] = test system: Plasmodiophora brassicae; assay: Fungicidal activity against clubroot disease causing Plasmodiophora brassicae infested Brassica campestris under greenhouse condition assessed as disease incidence at 2 kg a.i/ha treated to soil measured after 40 to 50 days

Row | SMILES | Activity [1] | Activity [2] | Activity [3]
1 | Cc1ccc(S(=O)(=O)Nc2ccc(C(F)(F)F)cc2)cc1 | 26% | 0% | 26%
2 | Cc1ccc(S(=O)(=O)Nc2ccc([N+](=O)[O-])cc2Cl)cc1 | >91% | 26% | >91%
3 | Cc1cc([N+](=O)[O-])ccc1NS(=O)(=O)c1cc(C(F)(F)F)ccc1Cl | >91% | 0% | >91%
4 | Cc1cc([N+](=O)[O-])ccc1NS(=O)(=O)c1ccc(Cl)c(Cl)c1 | >91% | 0% | >91%
5 | Cc1cc([N+](=O)[O-])ccc1NS(=O)(=O)c1ccc(Cl)c(C(F)(F)F)c1 | >91% | 26% | >91%
6 | O=[N+]([O-])c1ccc(NS(=O)(=O)c2cccc(C(F)(F)F)c2)c(F)c1 | >91% | >91% | >91%
7 | O=[N+]([O-])c1ccc(NS(=O)(=O)c2cc(Cl)c(Cl)cc2Cl)c(F)c1 | >91% | 71% | >91%
8 | O=[N+]([O-])c1ccc(NS(=O)(=O)c2cccc(C(F)(F)F)c2)c(Cl)c1 | >91% | >91% | >91%
9 | Cc1ccc([N+](=O)[O-])cc1S(=O)(=O)Nc1ccc([N+](=O)[O-])cc1Cl | >91% | 0% | >91%
10 | Cc1ccc(C)c(S(=O)(=O)Nc2ccc([N+](=O)[O-])cc2Cl)c1 | >91% | 0% | >91%
11 | Cc1ccc(S(=O)(=O)Nc2ccc([N+](=O)[O-])cc2Cl)c(C)c1 | >91% | 0% | >91%
12 | O=[N+]([O-])c1ccc(NS(=O)(=O)c2cc(C(F)(F)F)ccc2Cl)c(Cl)c1 | >91% | 51% | >91%
13 | Cc1cc([N+](=O)[O-])ccc1NS(=O)(=O)c1cccc(C(F)(F)F)c1 | >91% | 0% | >91%
14 | Cc1cc([N+](=O)[O-])ccc1NS(=O)(=O)c1cc(Cl)ccc1Cl | >91% | 51% | >91%
15 | O=[N+]([O-])c1ccc(NS(=O)(=O)c2ccc(Cl)c(C(F)(F)F)c2)c(Cl)c1 [FLUSULFAMIDE] | >91% | >91% | >91%
